Data published in paper PMC10366102, “Dose escalation and expansion cohorts in patients with advanced breast cancer in a Phase I study of the CDK7-inhibitor samuraciclib” (Nature Communications, 2023).

Tested on: HR+/HER2− advanced breast cancer patients post-CDK4/6 inhibitor
Conditions: female, human, in vivo
Method: In each cohort the dose of fulvestrant was 500 mg every 28 ± 2 days, with an additional 500 mg dose given 14 ± 2 days after the first dose. Cohort 1 tested samuraciclib 240 mg OD continuous dosing. If the DLT stopping criteria were not met, Cohort 2 commenced enrollment at the Module 1A MTD. Patients underwent regular safety monitoring and 8-week scans reported using RECIST V1.1[32].
As Module 1A was a ‘first time in human’ safety study, initial efficacy was evaluated as a secondary endpoint using the DCR, defined as the percentage of patients with a complete response (CR), PR or stabilization of disease at first on treatment RECIST assessment. To allow for the evaluation of longer-term benefit, Module 1B-1 and Module 2A used the CBR as a secondary endpoint, defined as the percentage of patients with CR or PR or stabilization of disease for at least 24 weeks between enrollment and disease progression or death due to any cause. In addition, the ORR was assessed, defined as the percentage of patients who had at least 1 objective response (CR or PR) prior to any evidence of progression. […] Statistical analyses of PFS using the Kaplan-Meier method were performed on the ITT population - defined as all enrolled patients. AEs were summarized from the Safety Population - defined as all patients who received at least 1 dose of samuraciclib - using the MedDRA system organ class (SOC), preferred term (PT), and graded according to CTCAE V5.0 (Supplementary Information).
DLTs recorded in the first cycle. Patients were considered evaluable if they completed the first cycle or
discontinued therapy in the first cycle due to a DLT. Patients in a cohort were replaced if they could not
complete the first cycle unless this was due to a DLT.
Part A was planned to have two dose cohorts with up to 6 evaluable patients to be enrolled per
cohort. In each cohort, the dose of fulvestrant was fixed at the standard dose of 500mg given at intervals
of 28±2 days with an additional 500mg dose given 14±2 days after the first dose. Fulvestrant was
administered as two consecutive slow intramuscular (IM) injections (1-2 minutes) of 250mg in 5 mL,
one in each buttock (gluteal area). Pre-and peri-menopausal women also had to have commenced
treatment with a luteinizing hormone-releasing hormone (LHRH) agonist at least 4 weeks prior to first
dose of study medication. Patients continued to receive treatment in 28-day cycles until they no longer
gained clinical benefit or they discontinued treatment.
Cohort 1 tested samuraciclib at 240mg OD as monotherapy, which is approximately 33% lower than the
current maximum tolerated dose (MTD) of 360mg. If no DLT was recorded in Cycle 1 in the first 3
evaluable patients, Cohort 2 commenced enrolment at 360mg of samuraciclib OD.
DLT in Cohort 1, a further 3 evaluable patients were assessed.
started enrolment. If ≥ 2/3 or ≥ 2/6 patients in Cohort 1 experienced a DLT, dose escalation was
stopped. In Cohort 2, if 0/3 or 1/3 evaluable patients experienced a DLT, the cohort was expanded to 6
patients. If ≥ 2/3 or ≥ 2/6 patients experienced a DLT, the Cohort 1 dosing regimen (samuraciclib at
240mg and fulvestrant at 500mg) was determined as the preliminary Phase 2 dosing regimen. If < 2/6
considered the recommended Phase 2 regimen.
The SRC was convened to decide whether and when to open the second samuraciclib dosing cohort and
which dosing regimen to advance to randomized Phase 2 testing. If the SRC considered safety and/or
patients who had at least one response of complete response (CR) or partial response (PR) prior to any
evidence of progression. The percentage change in tumor size was derived at each tumor imaging
assessment by the best percentage change from baseline in the sum of the diameters of target lesions. In
Module 1A initial efficacy was evaluated using the disease control rate (DCR) defined as percentage of
participants with a complete response (CR) or partial response (PR) or stabilization of disease at first on
treatment RECIST assessment.

CC(C)c1cnn2c(NCc3ccccc3)cc(NC[C@H]3CCNC[C@@H]3O)nc12 [samuraciclib, Samuraciclib]
Discontinued due to related gastrointestinal AEs: 23% | Discontinued due to unrelated AEs: 5 patients | Drug-related: ALT increased: 3 (9.7) patients (%) | Drug-related: AST increased: 4 (12.9) patients (%) | Drug-related: Abdominal pain: 7 (22.6) patients (%) | Drug-related: Abdominal pain (second line so named): 4 (12.9) patients (%) | Drug-related: Anaemia: 2 (6.5) patients (%) | Drug-related: Constipation: 2 (6.5) patients (%) | Drug-related: Decreased appetite: 9 (29.0) patients (%) | Drug-related: Dehydration: 2 (6.5) patients (%) | Drug-related: Diarrhoea: 28 (90.3) patients (%) | Drug-related: Dry mouth: 2 (6.5) patients (%) | Drug-related: Dry skin: 2 (6.5) patients (%) | Drug-related: Dysgeusia: 4 (12.9) patients (%) | Drug-related: Dysphagia: 3 (9.7) patients (%) | Drug-related: Fatigue: 11 (35.5) patients (%) | Drug-related: Flatulence: 2 (6.5) patients (%) | Drug-related: Headache: 4 (12.9) patients (%) | Drug-related: Mouth ulceration: 2 (6.5) patients (%) | Drug-related: Mucosal inflammation: 2 (6.5) patients (%) | Drug-related: Muscular weakness: 2 (6.5) patients (%) | Drug-related: Nausea: 25 (80.6) patients (%) | Drug-related: Rash: 3 (9.7) patients (%) | Drug-related: Stomatitis: 2 (6.5) patients (%) | Drug-related: Taste disorder: 2 (6.5) patients (%) | Drug-related: Thrombocytopenia: 3 (9.7) patients (%) | Drug-related: Vomiting: 23 (74.2) patients (%) | Drug-related: Weight decreased: 2 (6.5) patients (%) | Participants with any drug-related TEAE: 30 (96.8) patients (%)
